From patent US9499612B2, “Antigen binding constructs” (Glaxo Group Limited, priority 2011, dated 2016)

What was measured:
[1] = tested on: human VEGF165 induced blood-retinal breakdown; assay: VEGF induced blood-retinal breakdown: rabbit retinal leakage model; assay type: in vivo; settings: for % reduction vs vehicle: Table 4B
Protocol: The high (H) and low (L) doses were based upon a molar equivalent dosing to Ranibizumab ([…] ™). The low dose, (L), was one third of the high dose.
In brief, all molecules were buffer exchanged using PD-10 Desalting Columns (GE Healthcare) into 10 mM Histidine HCl, 10% α-αtrehalose dehydrate, 0.01% PolySorbate 80, pH 5.5, and concentrated to the desired concentration using VIVASPIN™ 20, molecular weight cut off 5000 Da, spin concentrations (Sartorius Stedim Biotech), both were used according to manufacturer's instructions.
Ninety-eight (98) GD79B pigmented rabbits were randomly divided into nine (9) groups of ten (10) animals and one (1) group of eight (8) animals (used for KENACORT™ control). Each group was subdivided into 2 groups corresponding to 2 experimental sets. Test items, reference or control items were administered by intravitreal injection (IVT, 50 μL) into the right eyes on Day-7. Left eyes remained untreated and served as a negative control. On Day 0, right eyes were induced for blood retinal barrier (BRB) breakdown with a single intravitreal injection of 500 ng rhVEGF165 (vascular permeability inducer). Sodium fluorescein was intravenously injected to all groups 47 h after the VEGF challenge (Day 2). Within 10 min after the injection of the tracer a retinal angiography was performed on right eye and pictures were taken. Ocular fluorescein contents in the vitreoretinal compartment were measured 1 h later using non-invasive scanning ocular fluorophotometry. A right eye/left eye fluorescein content (AUC) Rt ratio was determined for retinal permeability evaluation. At the end of the evaluation period (Day 2), animals were euthanized and right eyes of all animals were enucleated. […] Fluorescein angiograms were collected for qualitative assessment.
One hundred and forty (140) HY79B pigmented rabbits were randomly divided into eleven (11) groups of twelve (12) animals and one (1) group of eight animals, each group was sub-divided into 4 experimental sets of 3 animals, bar the KENACORT™ treated group, (4 sets of 2 animals), (see Table 15A).

[2] = tested on: VEGF165 induced proliferation of human umbilical vein endothelial cells; assay: Human Umbilical Cord Endothelial Cell (HUVEC) proliferation assay; assay type: cell-based
Protocol: The assay measures the extent of endothelial cell proliferation induced by a defined concentration of VEGF165 and the ability of VEGF antagonists to block this effect. HUVECs were seeded at 5000 cells per well in 96-well gelatine-coated plates, leaving outer wells free of cells, and incubated for several hours to permit adherence. Test molecules were assayed at equimolar concentrations (max 3.33×10^−08 M) with a 2-fold serial dilution, each in triplicate. The VEGF165 was prepared in basal medium to achieve 75 ng/ml final concentration. Medium was removed manually from the cell monolayers and 50 μl basal media was added to prevent the cells from drying out. […] Cells were incubated for 72 hrs, after which time the total number of cells was determined using Cell Titre Glo. […]
(§1) PRISM™ using a Sigmodial curve fit, variable slope cf a non-linear regression (variable slope). […] Estimates of the curve maxima and the standard error were analysed using a weighted mixed model analysis of variance, using 1/(standard error)^2, [SE]^2, as a weighting. […]
as §1

[3] = dose H, VEGF induced retinal leakage

| Molecule | % reduction vs vehicle ([1]; 2 000 μg/eye) [%] | % reduction ([1]; Table 15B (ii), 2 000 ug/eye) [%] | % reduction vs vehicle [1, 3] [%] | inhibition of HUVEC proliferation ([2]; Example 8, 75 ng/ml VEGF165, 72 hrs) [%] | inhibition of VEGF driven HUVEC proliferation ([2]; Example 18) [%] | % reduction vs vehicle ([1]; low dose (L)) [%] |
| --- | --- | --- | --- | --- | --- | --- |
| C[C@]12C=CC(=O)C=C1CC[C@H]1[C@@H]3C[C@@H](O)[C@](O)(C(=O)CO)[C@@]3(C)C[C@H](O)[C@@]12F [KENACORT ™, Triamcinalone, reference compound] | 85 | 80 |  |  |  |  |
| Bevacizumab [AVASTIN ™, reference compound] |  |  | 75 | ~100 | ~100 |  |
| Ranibizumab [LUCENTIS ™, reference compound] |  |  | 82 |  |  | 78 |
